Results taken from PMC11545984, “1,3-Dipolar Cycloaddition of Nitrile Oxides and Nitrilimines to (−)-β-Caryophyllene: Stereoselective Synthesis of Polycyclic Derivatives and Their Biological Testing” (International Journal of Molecular Sciences, 2024).
Marks after values point to notes of the source that are not given here.

How the values were obtained:
[1] = system: influenza virus A/Puerto Rico/8/34 (H1N1); assay: Antiviral (cytoprotective) activity in MDCK cells, MTT; format: cell-based; conditions: H1N1; infected MDCK cells, m.o.i. 0.01, 48 h, 50% cell protection; read-out: IC50
DU145 [2] = assay: Initial cytotoxicity testing (MTT test), DU145; format: cell-based, human; conditions: for cytotoxicity DU145: human cancer cell line, MTT, 72 h, two concentrations 50–100 µM; for IC50: Homo sapiens, DU-145, 72 h, read-out: cytotoxicity DU145
Procedure: (§1) Colon cancer (HCT116, HT29), breast cancer (MCF7, SKBR3), melanoma (SK-MEL28), lung cancer (A549), prostate cancer (DU145), human normal cells (VA-13 and HEK293), and murine mammary cell lines (EMT6) were purchased from ATCC (Manassas, VA, USA). Cells were routinely grown in RPMI 1640 culture medium, supplemented with 10% fetal bovine serum, glutamine, and 100 U/mL penicillin. HCT116, HT29, MCF7, SKBR3, SK-MEL28, A549, DU145, VA-13, HEK293, and EMT6 cells were grown in flasks in RPMI 1640 fresh culture medium with supplements at 37 °C and 5% CO2. Cells were grown as monolayer cultures, and the cells in the exponential growth phase were trypsinized and suspended in the supplemented RPMI 1640 medium.
(§2) To evaluate the cytotoxicity of the compounds, we placed cells in (20–30) × 10^3 cells/mL concentrations in 96-well culture plates for 24 h. Cells were counted after treatment with Trypan blue solution (0.4%). They were then exposed to two different concentrations of compounds 16–30 (50–100 µM) dilutions in pre-incubated cells at 37 °C for 72 h. In control wells with untreated cells, only (DMSO + PBS) was added. Cell viability was measured by the standard MTT test. The stock solutions of each compound were prepared in DMSO following by preparation of serial dilutions in PBS.
(§3) The absorbance was measured at 540 nm using a Multiskan™ FC microplate photometer and the Skanlt software 6.1 RE for microplate reader, both from Thermo Scientific (Waltham, MA, USA). Experiments were carried out in triplicate; to perform the statistical analysis, more concentrations should be evaluated.

A549 [3] = assay: Initial cytotoxicity testing (MTT test), A549; format: cell-based, human; conditions: for cytotoxicity A549: human cancer cell line, MTT, 72 h, two concentrations 50–100 µM; for IC50: Homo sapiens, A549, 72 h, read-out: cytotoxicity A549
Procedure: as §1, §2, §3

VA-13 = assay: Initial cytotoxicity testing (MTT test), VA-13; format: cell-based, human; conditions: human healthy cells, MTT, 72 h, two concentrations 50–100 µM
Procedure: as §1, §2, §3

HEK293 = assay: Initial cytotoxicity testing (MTT test), HEK293; format: cell-based, human; conditions: human healthy cells, MTT, 72 h, two concentrations 50–100 µM
Procedure: as §1, §2, §3

EMT6 = assay: Initial cytotoxicity testing (MTT test), EMT6; format: cell-based, murine; conditions: for cytotoxicity EMT6: murine mammary cell line, MTT, 72 h, two concentrations 50–100 µM
Procedure: as §1, §2, §3

[4] = system: DU145, A549, VA-13, HEK293, EMT6; assay: Initial cytotoxicity testing (MTT test), all cell lines together; format: cell-based
Procedure: as §1, §2, §3

HCT116 = assay: IC50 determination (MTT test), HCT116; format: cell-based, human; conditions: 72 h; for IC50: Homo sapiens, HCT-116, colon cancer; for IC50 HCT116: colon cancer
Procedure: as §1
(§4) To evaluate the cytotoxicity of the SDE-series in vitro, we placed cells in (15–30) × 10^3 cells/mL concentrations in 96-well culture plates for 24 h. Cells were counted after treatment with Trypan blue solution (0.4%). After 24 h, the cells were exposed to six tested concentrations of SDE-series (50–1.5 µM) dilutions to pre-incubated cells at 37 °C for 72 h. In control wells with untreated cells, only (DMSO + PBS) was added. Cell viability was measured by the standard MTT test. The absorbance was measured at 540 nm using a Multiskan™ FC microplate photometer and the Skanlt software 6.1 RE for microplate reader, both from Thermo Scientific (Waltham, MA, USA). In vitro experiments were carried out in triplicate. GraphPad prism version 9.0 was used to determine the IC50. The IC50 data are presented as mean (±) standard deviation (SD).

HT-29 = assay: IC50 determination (MTT test), HT-29; format: cell-based; conditions: Homo sapiens, colon cancer, 72 h
Procedure: as §1, §4

MCF7 = assay: IC50 determination (MTT test), MCF7; format: cell-based; conditions: Homo sapiens, breast cancer, 72 h
Procedure: as §1, §4

SKBR3 = assay: IC50 determination (MTT test), SKBR3; format: cell-based; conditions: Homo sapiens, SK-BR-3, breast cancer, 72 h
Procedure: as §1, §4

SK-MEL-28 = assay: IC50 determination (MTT test), SK-MEL-28; format: cell-based, human; conditions: 72 h; for IC50: Homo sapiens, SK-MEL-28, melanoma; for IC50 SK-MEL-28: melanoma
Procedure: as §1, §4

A549 [5] = assay: IC50 determination (MTT test), A549; format: cell-based; conditions: Homo sapiens, lung cancer, 72 h
Procedure: as §1, §4

DU145 [6] = assay: IC50 determination (MTT test), DU145; format: cell-based; conditions: Homo sapiens, DU-145, prostate cancer, 72 h
Procedure: as §1, §4

HEK-293 = assay: IC50 determination (MTT test), HEK-293; format: cell-based; conditions: Homo sapiens, HEK293, normal cells, 72 h
Procedure: as §1, §4

in vitro = conditions: dog
[7] = system: a variety of cancer cell lines; assay: IC50 determination (MTT test), variety of cancer cell lines; format: cell-based; conditions: Homo sapiens, 72 h, read-out: IC50 range on a variety of cancer cell lines
Procedure: as §1
as §4, with “In vitro experiments were carried out in triplicate. GraphPad prism version 9.0 was used to determine the IC50. The IC50 data are presented as mean (±) standard deviation (SD).” left out

[8] = Initial cytotoxicity testing (MTT test), VA-13; format: cell-based, human; conditions: human healthy cells, MTT, 72 h, two concentrations 50–100 µM
Procedure: as §1, §2, §3

[9] = Initial cytotoxicity testing (MTT test), HEK293; format: cell-based, human; conditions: human healthy cells, MTT, 72 h, two concentrations 50–100 µM
Procedure: as §1, §2, §3

[10] = system: influenza virus A/Puerto Rico/8/34 (H1N1); assay: Time-of-addition experiment in MDCK cells; format: cell-based; conditions: m.o.i. 10, addition from -2 h to 6 hpi

## COc1ccc(C2=NO[C@]3(CC/C=C(\C)CC[C@@H]4[C@@H]3CC4(C)C)C2)cc1 [Compound 17a, (1S,2R,9R,E)-3′-(4-Methoxyphenyl)-6,10,10-trimethyl-4′H-spiro[bicyclo [7.2.0]undecane-2,5′-isoxazol]-5-ene]
[1]
  IC50: 8.03 ± 1.1 µM
DU145 [2]
  cytotoxicity DU145: + *
A549 [3]
  cytotoxicity A549: + *
VA-13
  cytotoxicity VA-13: + *
HEK293
  cytotoxicity HEK293: + *
EMT6
  cytotoxicity EMT6: + *
[4]
  toxicity to all cells: extremely toxic, killing all cells within 48 h
HCT116
  IC50: 39.4 ± 2.8 µM
HT-29
  IC50: 47.1 ± 3 µM
MCF7
  IC50: > 50 µM
SKBR3
  IC50: 36.5 ± 3.2 µM
SK-MEL-28
  IC50: 38.9 ± 3.9 µM
A549 [5]
  IC50: 30.7 ± 2.1 µM
DU145 [6]
  IC50: 42.6 ± 3.4 µM
HEK-293
  IC50: 44.3 ± 4.1 µM
In vitro
  CC50 at 48 h: 37 ± 2.2 µM

## CC1=CCCC2(CC(C)=NN2c2ccccc2)C2CC(C)(C)C2CC1 [Compound 21a, (1S,2R,9R,E)-5′,6,10,10-Tetramethyl-2′-phenyl-2′,4′-dihydrospiro[bicyclo [7.2.0]undecane-2,3′-pyrazol]-5-ene]
[1]
  IC50: 6.25 ± 0.7 µM
DU145 [2]
  cytotoxicity DU145: + *
A549 [3]
  cytotoxicity A549: + *
VA-13
  cytotoxicity VA-13: + *
HEK293
  cytotoxicity HEK293: + *
EMT6
  cytotoxicity EMT6: + *
[4]
  toxicity to all cells: extremely toxic, killing all cells within 48 h
HCT116
  IC50: 22.4 ± 0.8 µM
HT-29
  IC50: 39.4 ± 2.1 µM
MCF7
  IC50: > 50 µM
SKBR3
  IC50: 12.3 ± 1 µM
SK-MEL-28
  IC50: 24.9 ± 1.3 µM
A549 [5]
  IC50: 21.2 ± 0.9 µM
DU145 [6]
  IC50: 18.8 ± 0.4 µM
HEK-293
  IC50: 14.2 ± 0.9 µM
[7]
  IC50: 12.3 to 39.4 µM
In vitro
  CC50 at 48 h: 28 ± 1.9 µM

## COc1cccc(OC)c1C1=NN(c2c(Cl)cc(Cl)cc2Cl)[C@]2(CC/C=C(\C)CC[C@@H]3[C@@H]2CC3(C)C)C1 [Compound 23a, (1S,2R,9R,E)-5′-(2,6-Dimethoxyphenyl)-6,10,10-trimethyl-2′-(2,4,6-trichlorophenyl)-2′,4′-dihydrospiro[bicyclo [7.2.0]undecane-2,3′-pyrazol]-5-ene]
[1]
  IC50: > 5.59 µM
DU145 [2]
  IC50: < 50 µM
A549 [3]
  IC50: < 50 µM
[8]
  IC50 at 72 h: < 50 µM
[9]
  IC50 at 72 h: < 50 µM
EMT6; initial testing
  toxicity against EMT6: extremely toxic
EMT6
  cytotoxicity EMT6: + *
[4]; after 72 h, read-out: IC50 on all cells
  IC50: < 50 µM
HCT116
  IC50: > 50 µM
  IC50 HCT116: did not show any cytotoxic effects
HT-29
  IC50: 45 ± 1.9 µM
MCF7
  IC50: > 50 µM
SKBR3
  IC50: > 50 µM
SK-MEL-28
  IC50: > 50 µM
  IC50 SK-MEL-28: did not show any cytotoxic effects
A549 [5]
  IC50: 33.4 ± 2.2 µM
DU145 [6]
  IC50: 28.8 ± 1.2 µM
HEK-293
  IC50: 39.2 ± 3 µM
In vitro
  CC50 at 48 h: 10.2 ± 0.8 µM

## CC1(C)C[C@H]2[C@H]1CC[C@]1(C)ON=C(c3ccc(Cl)cc3)[C@H]1CC[C@@]21CC(c2ccc(Cl)cc2)=NO1 [Compound 25, (3aR,6R,6aS,8aR,10aS)-3,3′-Bis(4-chlorophenyl)-8,8,10a-trimethyl-3a,4,5,6a,7,8,8a,9,10,10a-decahydro-4′H-spiro[cyclobuta [5,6]cyclonona [1,2-d]isoxazole-6,5′-isoxazole]]
[1]
  IC50: 34.1 ± 4.4 µM
[10]
  latest time of addition with virus-inhibiting activity: ≤ 6 hpi
DU145 [2]
  IC50: 50 to 100 µM
DU145 [2]; initial testing
  toxicity to DU145: harmful
A549 [3]
  IC50: 50 to 100 µM
A549 [3]; initial testing
  toxicity to A549: harmful
[8]
  IC50 at 72 h: > 50 µM
[9]
  IC50 at 72 h: > 50 µM
HCT116
  IC50: > 50 µM
  IC50 HCT116: did not show any cytotoxic effects
HT-29
  IC50: > 50 µM
MCF7
  IC50: > 50 µM
SKBR3
  IC50: > 50 µM
SK-MEL-28
  IC50: > 50 µM
  IC50 SK-MEL-28: did not show any cytotoxic effects
A549 [5]
  IC50: > 50 µM
DU145 [6]
  IC50: > 50 µM
HEK-293
  IC50: > 50 µM
In vitro
  CC50 at 48 h: 426 ± 26.9 µM
